Experimental data as given in patent US7429473B2, “Diacylglycerol acyltransferase genes, proteins, and uses thereof” (Michigan State University, priority 2003, dated 2008).

Tested on: Euonymus alata diacylglycerol acetyltransferase (AcDAGAT), native enzyme activity in cell free homogenate of endosperm plus embryo
Experiment: AcDAGAT assay with [1-14C]acetyl-CoA in cell free homogenate (CFH) of developing Euonymus alata seeds
Type: biochemical
Description: Characterization of acyltransferase activity by in vitro assays. Acyltransferase activity was assayed by incubating [^14C]acetyl-CoA with cell free extracts from developing Euonymus alata seeds and exogenous 1,2-diacylglycerol (DAG). Total lipids were extracted, radioactivity assayed, then the amount of label in the 1,2-diacyl-3-acetin fraction determined by TLC. There was a very high (greater than about 20-fold), largely soluble acetyl-CoA hydrolase activity that competed with the transferase for substrate.
All procedures were carried out on ice or at 4° C. Frozen embryo and endosperm tissue was added to two volumes of chilled buffer containing 0.3 M sucrose, 10 mM NaF, 5 mM MgCl2, 2 mM dithiothreitol, 1 mM EDTA and 40 mM Hepes -NaOH (pH 7.4), homogenized, and filtered through two layers of Miracloth. The residue was rehomogenized in two more volumes of buffer and filtered. The filtrates were combined and constitute the cell free homogenate (CFH). The CFH was frozen and stored at −70° C. until used and typically contained 12-17 mg protein/ml. Protein concentrations were estimated using the Bio-Rad protein assay, which is based on the Bradford method (1976), using bovine serum albumin as the standard.
The standard (Ac)DAGAT assay contained [1-^14C]acetyl-CoA (100 μM, 200,000 d.p.m.) plus 140 μl of homogenization buffer in a total volume of 200 μl. 1,2-dioleoyl-sn-glycerol (50 μg, 0.4 mM) was added as 1 μl of ethanol solution. The assay was initiated by adding 20 μl of CFH. The reaction was run at room temperature (25° C.) for 1S min and terminated by the addition of hot isopropanol (1 ml). Lipids were extracted with hexane and isopropanol as described by Hara and Radin (1978). The [^14C]lipid residue was dissolved in hexane and an aliquot assayed for radioactivity by liquid scintillation counting. The standard long-chain DAGAT assay contained 20 μM [1-^14C]palmitoyl-CoA and 20-40 μl of CFH and was run for 30 minutes: all other aspects were as for acetyl DAGAT assays.
Incubation of cell free homogenates (CFH) from developing Euonymus alata endosperm plus embryo tissues with [^14C]acetyl-CoA produced labeled lipids. […] Long-chain TAG elutes ahead of Ac-TAG in this solvent system. When this labeled band was recovered and analyzed by C 18 reversed-phase TLC, the radioactivity migrated with the mass bands corresponding to the major Ac-TAG molecular species, namely C16/C18 and C18/C18. When a unique exogenous diacylglycerol, 1,2-dihexanoyl-sn-glycerol, was added to the assays, a novel band appeared that co-chromatographed with the synthetic 3-acetyl-1,2-dihexanoin standard in both normal and reverse phase TLC systems. The migration of the standard was confirmed by GC analysis of recovered fractions from the TLC plates. […]

Compound | Km (Lineweaver-Burke reciprocal plot, CFH, 25° C.) | Vmax (estimate from acetyl-CoA concentration curve) (acetyl-CoA concentration curve, cell free extracts of developing seeds) | Vmax (acetyl-CoA varied, Lineweaver-Burke reciprocal plot, CFH) | average enhancement of AcDAGAT activity by exogenous sn-1,2-diolein (0.1-1.2 mM sn-1,2-diolein added, endogenous DAG present)
CC(=O)SCCNC(=O)CCNC(=O)[C@H](O)C(C)(C)COP(=O)(O)OP(=O)(O)OC[C@H]1O[C@@H](n2cnc3c(N)ncnc32)[C@H](O)[C@@H]1OP(=O)(O)O [acetyl-CoA] | 100 µM | 120 nmoles/hour/gram fresh weight seed tissue | 2.5 nmoles/min/gfw | 
CCCCCCCC/C=C\CCCCCCCC(=O)OC[C@H](CO)OC(=O)CCCCCCC/C=C\CCCCCCCC [sn-1,2-diolein, 1,2-dioleoyl-sn-glycerol] |  |  |  | 30%
